Assay results as given in US10858369B2, “Pseudopolymorphic forms of a HIV protease inhibitor” (Janssen Sciences Ireland Unlimited Company, priority 2002, dated 2020).
In brackets after ≈: the same amount, converted by molar mass.

Experiments:
[1] = Fractions of Form B characterized with TG, DSC and IR; type: physicochemical; design: key to IR: ~Hydrate, Ref: ~hydrate, Ref: identical with reference
Excerpt: Different fractions of Form B were characterized with thermogravimetry (TG), differential scanning calorimetry (DSC) and infrared spectroscopy (IR).

[2] = Approximate solubility in different solvents at approximate 23° C.; type: physicochemical; details: thermodynamic from solid
[3] = Aqueous solubility in solvents with different pH (excess solute equilibrated at 20° C., UV spectrometry); type: physicochemical
Experimental: Further solubility investigations were performed in function of pH. […] An excess of the solute was equilibrated with the solvent at 20° C. for at least 24 hours. After removing the undissolved compound, the concentration in solution was determined using UV spectrometry.
Aqueous solubilities of Form B were measured in solvents with different pH. An excess of the solute was equilibrated with the solvent at 20° C. for at least 24 hours. After removing the undissolved compound, the concentration in solution was determined using UV spectrometry.
Aqueous solubilities of Form K were measured in solvents with different pH. An excess of the solute was equilibrated with the solvent at 20° C. for at least 48 hours. After removing the undissolved compound, the concentration in solution was determined using UV spectrometry.

[4] = Solubility in function of HPβCD (hydroxpropyl-β-cyclodextrin); type: physicochemical; details: 2 days at 20° C.
Experimental: An excess of product was equilibrated with the solvent during 2 days at 20° C. After removing the undissolved compound, the concentration in solution was determined using UV spectrometry.

[5] = Thermogravimetry of Form A, before and after Adsorption/Desorption tests, and at 25° C. under dry nitrogen; type: physicochemical
Experimental: The TG curve was recorded on a TA Instrument Hi-Res TGA 2950 thermogravimeter at the following conditions:
initial temperature: room temperature
final condition: 300° C. or <80[(w/w) %]
The loss of weight at temperatures up to 80° C. is mainly due to the evaporation of solvent (water) present in the sample. The loss of weight at temperatures above 80° C. is mainly due to the evaporation of solvent (ethanolate) present in the sample.
The loss of weight at 25° C. after 10 hours was around 0.6%. This was due to the evaporation of solvent.

[6] = Adsorption-Desorption tests (vapor sorption, weight change with respect to atmospheric humidity, 25° C.); type: physicochemical
Experimental: drying temperature: 40° C.
equilibrium: ≤0.05% in 5 min. or 60 min.
data interval: 0.05% or 2 min.
At the drying step about 0.6% weight loss was registered.
About 21 mg of Form K were transferred into a VTI vapor sorption analyzer model SGA100 and the weight change with respect to the atmospheric humidity was recorded at the following conditions:
drying temperature: 30° C.
data interval: 0.05% or 2.0 min.
Form K is hygroscopic. […] Form K adsorbed up to 1.5% water at high relative humidity.
A different study of the adsorption and desorption of water by Form K at 25° C. at different conditions of relative humidity was investigated on an amount of about 18 mg of the mesylate solvate. The weight change as a function of relative humidity was registered.

[7] = Adsorption-Desorption Hydratation Tests; type: physicochemical; details: 25° C., RH cycle repeated 11 times
Experimental: equilibrium: ≤0.0005% in 5 min. or 90 min.
data interval: 0.05% or 2 min
cycle RH (%) adsorption/desorption: 5.95 repeat the cycle 11 times
At the end of this test a loss of weight of 5.2% was registered. […] The ADS/DES hydratation test curves are collected in FIG. 19.

[8] = Randomized, placebo-controlled, double-blind, multiple dose escalation trial: safety, tolerability and pharmacokinetics after oral administration
[9] = initial drying step (drying temperature 40° C. Form A, 30° C. Form K)
[10] = different study, about 18 mg, 25° C., FIG. 26

Structure (SMILES): CC(C)CN(C[C@@H](O)[C@H](Cc1ccccc1)NC(=O)OC1CO[C@H]2OCC[C@@H]12)S(=O)(=O)c1ccc(N)cc1 (single isomer, unassigned) [Form B fraction 1]
- IR ([1]; after ADS/DES): ±Hydrate,
- TG % weight change <100° C. ([1]; after ADS/DES): 4.30%
- DSC Max (° C.) ([1]; fraction as such): 69.1 °C
- IR ([1]; fraction as such): Hydrate, Ref
- TG % weight change <100° C. ([1]; fraction as such): 5.65%

Structure (SMILES): CC(C)CN(C[C@@H](O)[C@H](Cc1ccccc1)NC(=O)OC1CO[C@H]2OCC[C@@H]12)S(=O)(=O)c1ccc(N)cc1 (single isomer, unassigned) [Form B fraction 2]
- DSC Max (° C.) ([1]; after 5 d 40° C./75% RH): 74.1 °C
- IR ([1]; after 5 d 40° C./75% RH): ~Hydrate, Ref
- TG % weight change <100° C. ([1]; after 5 d 40° C./75% RH): 3.56%
- DSC Max (° C.) ([1]; fraction as such): 75.6 °C
- IR ([1]; fraction as such): ~Hydrate, Ref
- TG % weight change <100° C. ([1]; fraction as such): 5.91%

Structure (SMILES): CC(C)CN(C[C@@H](O)[C@H](Cc1ccccc1)NC(=O)OC1CO[C@H]2OCC[C@@H]12)S(=O)(=O)c1ccc(N)cc1 (single isomer, unassigned) [Form B fraction 3]
- DSC Extra (° C.) ([1]; after 5 d 40° C./75% RH): 62.8 °C
- DSC Max (° C.) ([1]; after 5 d 40° C./75% RH): 77.4 °C
- IR ([1]; after 5 d 40° C./75% RH): ±Hydrate,
- TG % weight change <100° C. ([1]; after 5 d 40° C./75% RH): 2.33%
- DSC Extra (° C.) ([1]; fraction as such): 67.8 °C
- DSC Max (° C.) ([1]; fraction as such): 77.0 °C
- IR ([1]; fraction as such): ±Hydrate,
- TG % weight change <100° C. ([1]; fraction as such): 3.13%

Structure (SMILES): CC(C)CN(C[C@@H](O)[C@H](Cc1ccccc1)NC(=O)O[C@H]1CO[C@H]2OCC[C@H]21)S(=O)(=O)c1ccc(N)cc1 [Form A, (3R,3aS,6aR)-hexahydrofuro [2,3-b] furan-3-yl (1S,2R)-3-[[(4-aminophenyl)sulfonyl] (isobutyl)amino]-1-benzyl-2-hydroxypropylcarbamate]
- solubility ([2]; organic solvent or mixture, 1-Methoxy-2-propanol): 160000 to 213000 µg/mL (≈ 292 to 389 mM)
- solubility ([2]; organic solvent or mixture, 2-Propanol): < 3400 µg/mL
- solubility ([2]; organic solvent or mixture, Acetone): 106000 to 211000 µg/mL (≈ 194 to 385 mM)
- solubility ([2]; organic solvent or mixture, Dichloromethane): 105000 to 209000 µg/mL (≈ 192 to 382 mM)
- solubility ([2]; organic solvent or mixture, Ethanol absolute): < 3400 µg/mL
- solubility ([2]; organic solvent or mixture, Ethylacetate): 71000 to 107000 µg/mL (≈ 130 to 195 mM)
- solubility ([2]; organic solvent or mixture, Ethylmethylketone): 102000 to 204000 µg/mL (≈ 186 to 372 mM)
- solubility ([2]; organic solvent or mixture, Heptane): < 3400 µg/mL
- solubility ([2]; organic solvent or mixture, Isopropylether): < 3400 µg/mL
- solubility ([2]; organic solvent or mixture, Methacyanate): > 200000 µg/mL
- solubility ([2]; organic solvent or mixture, Methanol): < 3400 µg/mL
- solubility ([2]; organic solvent or mixture, Tetrahydrofurane): 102000 to 203000 µg/mL (≈ 186 to 371 mM)
- solubility ([2]; organic solvent or mixture, Toluene): < 3500 µg/mL
- solubility ([2]; water): < 3500 µg/mL
- solubility ([3]; Water (pH 5.9), at least 24 hours): 16 (pH 5.9) mg/100 ml solution
- solubility thermodynamic ([3]; pH 0.2, aqueous buffer, 1.0N HCl (pH 0.2), at least 24 hours): 6200 µg/mL (≈ 11.3 mM)
- solubility thermodynamic ([3]; pH 1.1, aqueous buffer, 0.1N HCl (pH 1.1), at least 24 hours): 830 µg/mL (≈ 1.52 mM)
- solubility thermodynamic ([3]; pH 2, aqueous buffer, Buffer pH 2 (citrate/HCl) (pH 2.0), at least 24 hours): 180 µg/mL (≈ 0.329 mM)
- solubility thermodynamic ([3]; pH 2.1, aqueous buffer, 0.01N HCl (pH 2.1), at least 24 hours): 180 µg/mL (≈ 0.329 mM)
- solubility thermodynamic ([3]; pH 3, aqueous buffer, Buffer pH 3 (citrate/HCl) (pH 3.0), at least 24 hours): 100 µg/mL (≈ 0.183 mM)
- solubility thermodynamic ([3]; pH 4, aqueous buffer, Buffer pH 4 (citrate/HCl) (pH 4.0), at least 24 hours): 90 µg/mL (≈ 0.164 mM)
- solubility ([4]; 5% HPβCD in water (pH = 5.8)): 2.4 (pH = 5.8) mg/ml solution
- solubility ([4]; 10% HPβCD in water (pH = 6.0)): 6.5 (pH = 6.0) mg/ml solution
- solubility ([4]; 20% HPβCD in water (pH = 6.0)): 17 (pH = 6.0) mg/ml solution
- solubility ([4]; 40% HPβCD in water (pH = 5.9)): 40 (pH = 5.9) mg/ml solution
- solubility ([4]; Water (pH = 5.9)): 0.16 (pH = 5.9) mg/ml solution
- loss of weight (TG) ([5]; 25° C. under dry nitrogen atmosphere, after 10 hours): around 0.6%
- TG (% weight change) >80° C. ([5]; Form A as such): 7.1%
- TG (% weight change) Up to 80° C. ([5]; Form A as such): 0.3%
- TG (% weight change) >80° C. ([5]; after A/D hydratation test): 0.5%
- TG (% weight change) Up to 80° C. ([5]; after A/D hydratation test): 5.4%
- TG (% weight change) >80° C. ([5]; after ADS/DES): 4.0%
- TG (% weight change) Up to 80° C. ([5]; after ADS/DES): 2.9%
- hygroscopicity ([6]; 25° C.): not hygroscopic
- loss of weight during the desorption cycle ([6]; 25° C.): 1.4%
- obtained product after ADS/DES ([6]; 25° C.): mixture of ethanolate form and hydrated form
- weight loss at the drying step [6, 9]: about 0.6%
- form after the hydratation test [7]: transferred into a hydrated form
- loss of weight at the end of the test [7]: 5.2%
- unchanged Form A excreted in the urine ([8]; all dose levels): Less than 2%
- time to reach steady-state plasma concentrations ([8]; oral, repeated dosing b.i.d. or t.i.d., healthy subjects): ≤ 3 days
- dose-proportionality of Cmax (maximum conc.) ([8]; with respect to dose per intake): dose-proportional

Structure (SMILES): CC(C)CN(C[C@@H](O)[C@H](Cc1ccccc1)NC(=O)O[C@H]1CO[C@H]2OCC[C@H]21)S(=O)(=O)c1ccc(N)cc1 [Form B, (3R,3aS,6aR)-hexahydrofuro [2,3-b] furan-3-yl (1S,2R)-3-[[(4-aminophenyl)sulfonyl] (isobutyl)amino]-1-benzyl-2-hydroxypropylcarbamate]
- solubility ([3]; 0.1N HCl (pH 1.1), at least 24 hours): 150 (pH 1.1) mg/100 ml solution
- solubility ([3]; Buffer pH 2 (citrate/HCl) (pH 2.0), at least 24 hours): 23 (pH 2.0) mg/100 ml solution
- solubility ([3]; Buffer pH 3 (citrate/HCl) (pH 3.0), at least 24 hours): 13 (pH 3.0) mg/100 ml solution
- solubility ([3]; Buffer pH 4 (citrate/HCl) (pH 4.0), at least 24 hours): 12 (pH 4.0) mg/100 ml solution
- solubility thermodynamic ([3]; pH 0.14, aqueous buffer, 1.0N HCl (pH 0.14), at least 24 hours): 5100 µg/mL (≈ 9.31 mM)
- solubility thermodynamic ([3]; pH 5.1, water, Water (pH 5.1), at least 24 hours): 100 µg/mL (≈ 0.183 mM)
- hygroscopicity ([6]; 25° C.): hygroscopic
- obtained product after ADS/DES ([6]; 25° C.): mixture of hydrate and amorphous product
- water remained on the sample after the desorption cycle ([6]; 25° C.): about 1.2%
- weight loss at the drying step [6, 9]: about 5.6%

Structure (SMILES): CC(C)CN(C[C@@H](O)[C@H](Cc1ccccc1)NC(=O)O[C@H]1CO[C@H]2OCC[C@H]21)S(=O)(=O)c1ccc(N)cc1 [Form K, (3R,3aS,6aR)-hexahydrofuro [2,3-b] furan-3-yl (1S,2R)-3-[[(4-aminophenyl)sulfonyl] (isobutyl)amino]-1-benzyl-2-hydroxypropylcarbamate]
- solubility ([3]; 20% HPβCD in water (pH 1.6), at least 48 hours): 2100 (pH 1.6) mg/100 ml solution
- solubility thermodynamic ([3]; pH 2, aqueous buffer, 0.01N HCl (pH 2.0), at least 48 hours): 240 µg/mL (≈ 0.438 mM)
- solubility thermodynamic ([3]; pH 2, aqueous buffer, Buffer pH 2 (citrate/HCl) (pH 2.0), at least 48 hours): 210 µg/mL (≈ 0.383 mM)
- solubility thermodynamic ([3]; pH 3, aqueous buffer, Buffer pH 3 (citrate/HCl) (pH 3.0), at least 48 hours): 120 µg/mL (≈ 0.219 mM)
- solubility thermodynamic ([3]; pH 3.3, water, Water (pH 3.3), at least 48 hours): 190 µg/mL (≈ 0.347 mM)
- solubility thermodynamic ([3]; pH 4, aqueous buffer, Buffer pH 4 (citrate/HCl) (pH 4.0), at least 48 hours): 110 µg/mL (≈ 0.201 mM)
- hygroscopicity ([6]; 25° C.): hygroscopic
- drying of the product during the desorption cycle ([6]; 25° C., about 21 mg, FIG. 25): dried completely
- weight loss at the drying step ([6]; different study, about 18 mg of the mesylate solvate, FIG. 26): about 0.6%
- drying of the product during the desorption cycle [6, 10]: dried completely
- hygroscopicity [6, 10]: slightly hygroscopic
- weight loss at the drying step [6, 9]: 0.3%
